Assay results published in PubChem BioAssay AID256 (DTP/NCI, 2004).
Several values for one entry are separate records, joined by “and”; a condition that tells them apart may be missing. Identical values can stand only once. Toxic doses and inconclusive results are not listed.

Tested on: CD2F1 mice, L1210 leukemia ip, survival T/C
Test: NCI In Vivo Anticancer Drug Screen. Data for tumor model L1210 Leukemia (intraperitoneal) in CD2F1 (CDF1) mice
Details: higher = longer survival
In short: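 Compound-dosed mice with transplantable tumor versus matched vehicle controls; endpoint ratio T/C reported.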

[1] = endpoint: mean survival time, dose: 100.0 mg/kg/injection, schedule: Q01DX009 (ip), vehicle: saline
[2] = endpoint: mean survival time, dose: 200.0 mg/kg/injection, schedule: Q01DX009 (ip), vehicle: saline
[3] = endpoint: mean survival time, dose: 400.0 mg/kg/injection, schedule: Q01DX009 (ip), vehicle: saline
[4] = endpoint: mean survival time, dose: 100.0 mg/kg/injection, schedule: Q01DX001 (ip), vehicle: saline with Tween-80
[5] = endpoint: mean survival time, dose: 200.0 mg/kg/injection, schedule: Q01DX001 (ip), vehicle: saline with Tween-80
[6] = endpoint: mean survival time, dose: 100.0 mg/kg/injection, schedule: Q04DX003 (ip), vehicle: saline with Tween-80
[7] = endpoint: mean survival time, dose: 200.0 mg/kg/injection, schedule: Q04DX003 (ip), vehicle: saline with Tween-80
[8] = endpoint: mean survival time, dose: 400.0 mg/kg/injection, schedule: Q04DX003 (ip), vehicle: saline with Tween-80
[9] = endpoint: mean survival time, dose: 50.0 mg/kg/injection, schedule: Q01DX001 (ip), vehicle: saline with Tween-80
[10] = endpoint: mean survival time, dose: 100.0 mg/kg/injection, schedule: Q01DX009 (ip), vehicle: saline with Tween-80
[11] = endpoint: mean survival time, dose: 200.0 mg/kg/injection, schedule: Q01DX009 (ip), vehicle: saline with Tween-80
[12] = endpoint: mean survival time, dose: 400.0 mg/kg/injection, schedule: Q01DX009 (ip), vehicle: saline with Tween-80

OCC(O)COCc1ccccc1 (centres undefined)
T/C [1]: 94 % of control | T/C [2]: 94 % of control | T/C [3]: 96 % of control

O=C(N/N=C/c1ccccc1)c1nn[nH]n1
T/C [4]: 96 % of control | T/C [5]: 88 % of control | T/C (endpoint: mean survival time, dose: 400.0 mg/kg/injection, schedule: Q01DX001 (ip), vehicle: saline with Tween-80): 88 % of control

CC12CCC(=O)C=C1CCC1C2CCC2(C)C(C(=O)O)CCC12 (centres undefined)
T/C [6]: 102 % of control | T/C [7]: 96 % of control

N#CC(C#N)=C/C=C/c1cccc([N+](=O)[O-])c1
T/C (endpoint: mean survival time, dose: 3.12 mg/kg/injection, schedule: Q01DX009 (ip), vehicle: Klucel (hydroxypropylcellulose) (HPC)): 101 % of control | T/C (endpoint: mean survival time, dose: 6.25 mg/kg/injection, schedule: Q01DX009 (ip), vehicle: Klucel (hydroxypropylcellulose) (HPC)): 109 % of control | T/C (endpoint: mean survival time, dose: 12.5 mg/kg/injection, schedule: Q01DX009 (ip), vehicle: Klucel (hydroxypropylcellulose) (HPC)): 104 % of control

O=S(=O)(O)c1ccc(-c2ccc(S(=O)(=O)O)cc2)cc1 (tested in a mixture with another compound)
T/C (endpoint: mean survival time, dose: 6.3 mg/kg/injection, schedule: Q01DX009 (ip), vehicle: saline): 95 % of control | T/C (endpoint: mean survival time, dose: 6.3 mg/kg/injection, schedule: Q04DX003 (ip), vehicle: saline): 121 % of control and 108 % of control | T/C (endpoint: mean survival time, dose: 12.0 mg/kg/injection, schedule: Q01DX001 (ip), vehicle: saline): 118 % of control | T/C (endpoint: mean survival time, dose: 12.5 mg/kg/injection, schedule: Q01DX001 (ip), vehicle: saline): 117 % of control and 123 % of control | T/C (endpoint: mean survival time, dose: 12.5 mg/kg/injection, schedule: Q01DX009 (ip), vehicle: saline): 150 % of control | T/C (endpoint: mean survival time, dose: 12.5 mg/kg/injection, schedule: Q04DX003 (ip), vehicle: saline): 122 % of control | T/C (endpoint: mean survival time, dose: 25.0 mg/kg/injection, schedule: Q01DX009 (ip), vehicle: saline): 162 % of control and 172 % of control and 180 % of control | T/C (endpoint: mean survival time, dose: 50.0 mg/kg/injection, schedule: Q01DX001 (ip), vehicle: saline): 150 % of control | T/C (endpoint: mean survival time, dose: 50.0 mg/kg/injection, schedule: Q01DX009 (ip), vehicle: saline): 115 % of control and 205 % of control and 342 % of control | T/C (endpoint: mean survival time, dose: 50.0 mg/kg/injection, schedule: Q04DX003 (ip), vehicle: saline): 160 % of control and 190 % of control and 205 % of control | T/C (endpoint: mean survival time, dose: 75.0 mg/kg/injection, schedule: Q04DX003 (ip), vehicle: saline): 195 % of control | T/C [1]: 100 % of control and 102 % of control | T/C (endpoint: mean survival time, dose: 100.0 mg/kg/injection, schedule: Q04DX003 (ip), vehicle: saline): 248 % of control and 275 % of control and 489 % of control | T/C (endpoint: mean survival time, dose: 150.0 mg/kg/injection, schedule: Q04DX003 (ip), vehicle: saline): 217 % of control | T/C (endpoint: mean survival time, dose: 200.0 mg/kg/injection, schedule: Q04DX003 (ip), vehicle: saline): 120 % of control

C(#CCNC1CCCCC1)CNC1CCCCC1
T/C (endpoint: mean survival time, dose: 25.0 mg/kg/injection, schedule: Q04DX002 (ip), vehicle: saline with Tween-80): 94 % of control | T/C (endpoint: mean survival time, dose: 50.0 mg/kg/injection, schedule: Q04DX002 (ip), vehicle: saline with Tween-80): 98 % of control

CCNC(=O)C(C)Br (centres undefined)
T/C (endpoint: mean survival time, dose: 100.0 mg/kg/injection, schedule: Q01DX001 (ip), vehicle: saline): 97 % of control | T/C (endpoint: mean survival time, dose: 200.0 mg/kg/injection, schedule: Q01DX001 (ip), vehicle: saline): 106 % of control

C=C(OC)C(Nc1cc(OC)c(OC)cc1C(=O)OC1CC(O[C@@H]2C(=O)C(NC(=O)OC)=C3/C(=C\CSSSC)[C@]2(O)C#C/C=C\C#C[C@@H]3OC2OC(C)C(NOC3CC(O)C(SC)C(C)O3)C(O)C2OC2CC(OC)C(NCCC)CO2)OC(C)C1O)OC (some centres undefined)
T/C (endpoint: median survival time, dose: 0.1 micrograms/kg/injection, schedule: Q01DX005 (ip), vehicle: methylcellulose (MC)): 117 % of control | T/C (endpoint: median survival time, dose: 0.2 micrograms/kg/injection, schedule: Q01DX005 (ip), vehicle: methylcellulose (MC)): 117 % of control | T/C (endpoint: median survival time, dose: 0.2 micrograms/kg/injection, schedule: Q04DX003 (ip), vehicle: methylcellulose (MC)): 109 % of control | T/C (endpoint: median survival time, dose: 0.3 micrograms/kg/injection, schedule: Q01DX005 (ip), vehicle: saline + alcohol): 180 % of control | T/C (endpoint: median survival time, dose: 0.32 micrograms/kg/injection, schedule: Q01DX005 (ip), vehicle: saline + alcohol): 119 % of control | T/C (endpoint: median survival time, dose: 0.4 micrograms/kg/injection, schedule: Q01DX005 (ip), vehicle: methylcellulose (MC)): 118 % of control | T/C (endpoint: median survival time, dose: 0.4 micrograms/kg/injection, schedule: Q04DX003 (ip), vehicle: methylcellulose (MC)): 118 % of control | T/C (endpoint: median survival time, dose: 0.5 micrograms/kg/injection, schedule: Q01DX005 (ip), vehicle: saline + alcohol): 180 % of control | T/C (endpoint: median survival time, dose: 0.64 micrograms/kg/injection, schedule: Q01DX005 (ip), vehicle: saline + alcohol): 151 % of control | T/C (endpoint: median survival time, dose: 0.8 micrograms/kg/injection, schedule: Q01DX001 (ip), vehicle: methylcellulose (MC)): 113 % of control | T/C (endpoint: median survival time, dose: 0.8 micrograms/kg/injection, schedule: Q01DX005 (ip), vehicle: saline + alcohol): 170 % of control | T/C (endpoint: median survival time, dose: 0.8 micrograms/kg/injection, schedule: Q04DX003 (ip), vehicle: methylcellulose (MC)): 122 % of control | T/C (endpoint: median survival time, dose: 1.28 micrograms/kg/injection, schedule: Q01DX005 (ip), vehicle: saline + alcohol): 170 % of control | T/C (endpoint: median survival time, dose: 1.3 micrograms/kg/injection, schedule: Q01DX005 (ip), vehicle: saline + alcohol): 180 % of control | T/C (endpoint: median survival time, dose: 2.1 micrograms/kg/injection, schedule: Q01DX005 (ip), vehicle: saline + alcohol): 180 % of control | T/C (endpoint: median survival time, dose: 3.2 micrograms/kg/injection, schedule: Q01DX005 (ip), vehicle: methylcellulose (MC)): 162 % of control | T/C (endpoint: median survival time, dose: 6.4 micrograms/kg/injection, schedule: Q01DX001 (ip), vehicle: methylcellulose (MC)): 150 % of control | T/C (endpoint: median survival time, dose: 6.4 micrograms/kg/injection, schedule: Q01DX005 (ip), vehicle: methylcellulose (MC)): 94 % of control | T/C (endpoint: median survival time, dose: 6.4 micrograms/kg/injection, schedule: Q04DX003 (ip), vehicle: methylcellulose (MC)): 152 % of control | T/C (endpoint: median survival time, dose: 12.8 micrograms/kg/injection, schedule: Q01DX001 (ip), vehicle: methylcellulose (MC)): 150 % of control | T/C (endpoint: median survival time, dose: 25.6 micrograms/kg/injection, schedule: Q01DX001 (ip), vehicle: methylcellulose (MC)): 104 % of control

CC1CN(Cc2ccccc2O)CC(C)N1 (centres undefined)
T/C (endpoint: mean survival time, dose: 25.0 mg/kg/injection, schedule: Q01DX005 (ip), vehicle: water): 96 % of control | T/C (endpoint: mean survival time, dose: 50.0 mg/kg/injection, schedule: Q01DX005 (ip), vehicle: water): 94 % of control | T/C (endpoint: mean survival time, dose: 100.0 mg/kg/injection, schedule: Q01DX005 (ip), vehicle: water): 94 % of control

Cc1ccnc(NS(=O)(=O)c2ccc(N)cc2)n1
T/C [1]: 100 % of control | T/C [2]: 96 % of control | T/C [3]: 97 % of control

CC(C)(C)NC(C1=CC(C)(C)c2ccccc2C1=O)c1ccccc1 (centres undefined)
T/C (endpoint: median survival time, dose: 50.0 mg/kg/injection, schedule: Q01DX009 (ip), vehicle: Klucel (hydroxypropylcellulose) (HPC)): 101 % of control | T/C (endpoint: median survival time, dose: 100.0 mg/kg/injection, schedule: Q01DX009 (ip), vehicle: Klucel (hydroxypropylcellulose) (HPC)): 101 % of control | T/C (endpoint: median survival time, dose: 200.0 mg/kg/injection, schedule: Q01DX009 (ip), vehicle: Klucel (hydroxypropylcellulose) (HPC)): 101 % of control

CN1C(=O)C2C3CCC(C)(O3)C2C1=O (centres undefined)
T/C [6]: 98 % of control | T/C [7]: 96 % of control | T/C [8]: 98 % of control

O=C1O/C(=C\c2ccccc2)C(O)=C1c1ccccc1
T/C (endpoint: mean survival time, dose: 25.0 mg/kg/injection, schedule: Q01DX001 (ip), vehicle: saline with Tween-80): 102 % of control | T/C [9]: 98 % of control | T/C [4]: 102 % of control

Brc1ccccc1-c1ccccc1-c1ccccc1
T/C [10]: 106 % of control | T/C [11]: 101 % of control | T/C [12]: 101 % of control

CCCCn1c(C)nc2c([N+](=O)[O-])cc(C(F)(F)F)cc21
T/C [9]: 95 % of control | T/C [4]: 98 % of control | T/C [5]: 95 % of control

N#CC1C(=N)Cc2ccccc2-c2ccccc21 (centres undefined)
T/C [10]: 96 % of control | T/C [6]: 108 % of control | T/C [11]: 93 % of control | T/C [7]: 101 % of control | T/C [12]: 106 % of control | T/C [8]: 101 % of control

CCC1CN2CCc3cc(OC)c(OC)cc3C2CC1CC1c2cc(OC)c(OC)cc2CCN1C(=O)C(Cc1c[nH]c2ccccc12)NC(=O)OC(C)(C)C (centres undefined)
T/C (endpoint: mean survival time, dose: 8.0 mg/kg/injection, schedule: Q04DX003 (ip), vehicle: saline with Tween-80): 93 % of control | T/C (endpoint: mean survival time, dose: 16.0 mg/kg/injection, schedule: Q04DX003 (ip), vehicle: saline with Tween-80): 95 % of control | T/C (endpoint: mean survival time, dose: 32.0 mg/kg/injection, schedule: Q04DX003 (ip), vehicle: saline with Tween-80): 98 % of control | T/C (endpoint: mean survival time, dose: 64.0 mg/kg/injection, schedule: Q04DX003 (ip), vehicle: saline with Tween-80): 89 % of control | T/C (endpoint: mean survival time, dose: 128.0 mg/kg/injection, schedule: Q04DX003 (ip), vehicle: saline with Tween-80): 87 % of control

N[C@@H]1CCCC[C@H]1N.O=C([O-])C(=O)[O-].[Pt+4]
T/C (endpoint: mean survival time, dose: 0.78 mg/kg/injection, schedule: Q04DX003 (ip), vehicle: saline): 120 % of control
